Assay results published in patent US20110151034A1, “ANTIBACTERIAL AGENT AND DISINFECTING METHOD” (Mitsubishi Chemical Corporation, priority 2008, published 2011).

Legend:
[1] = system: Listeria monocytogenes ATCC49594; assay: Antibacterial test in BHI culture medium: turbidity, inhibitory ratio and bacteria growth (Experimental Example 2); assay type: cell-based; conditions: for Number of bacteria (cfu/ml): culture 30° C. 24 hours, then BHI agar 37° C. 24 hours; for Inhibitory ratio (%): from turbidity vs dimethylsulfoxide standard; for Inhibitory ratio (%) / Turbidity of culture fluid: 30° C. for 24 hours; for Turbidity of culture fluid: 660 nm
Description: The above obtained isolated components were diluted with dimethylsulfoxide (manufactured by KANTO CHEMICAL CO., INC.) to prepare three test liquids at fraction concentrations (wt %) of 2%, 1% and 0.5%. As positive controls, erythromycin (manufactured by Wako Pure Chemical Industries Ltd.) was dissolved in ethanol (Junsei Chemical Co., Ltd.) to have a concentration of 1,000 ppm, 500 ppm or 250 ppm. As a negative control, sterilized water was used.
The antibacterial test was carried out by using Listeria monocytogenes ATCC49594 as follows.
(1) 8.9 ml of a brain heart infusion (BHI) culture medium (manufactured by NISSUI PHARMACEUTICAL CO., LTD.) was put in a test tube and treated in an autoclave (manufactured by TOMY SEIKO CO., LTD., TOMY BS-325). The culture medium concentration was adjusted to achieve a specified concentration when 0.1 ml of the above test liquid was added.
Listeria monocytogenes ATCC 49594 was cultured in the BHI culture medium by shake culture at 37° C. for 1 hour and diluted to an appropriate bacteria concentration (2.0×10^3 cfu/ml) by the BHI culture medium.
To the test tube in which 8.9 ml of the BHI culture medium prepared in the above (1) was put, 0.1 ml of the prepared test liquid and 1 ml of the bacteria liquid prepared in the above (2) were added, stirred and left at rest at 30° C. for 24 hours.
The turbidity of the culture fluid in the test tube left at rest at 30° C. for 24 hours was measured by a turbidimeter (manufactured by TAITEC CORPORATION, miniphoto 518R) at a wavelength of 660 nm. The inhibitory ratio was calculated from the following formula, where A is the turbidly in the case of a culture fluid to which 0.1 ml of dimethylsulfoxide was added instead of the test liquid.
Inhibitory ratio (%)=[(A−[turbidity of culture fluid])/A]×100
The culture fluid in the test tube left at rest at 30° C. for 24 hours was diluted with a phosphate buffer solution (PBS) and smeared on a BHI agar medium. After culturing at 37° C. for 24 hours, the number of bacteria on the agar medium was measured by observation with a microscope. With respect to the dilution with PBS, the culture fluid was preliminarily properly diluted within a range of from 10^2 to 10^9 times to such a concentration that the number of bacteria can be counted with a microscope 24 hour later (the number of bacteria 24 hours later was calibrated in accordance with the proportion preliminarily diluted with PBS).

[2] = system: Listeria monocytogenes JCM2873; assay: Antibacterial test, colony formation on Mueller Hinton agar after culture with sample (Experimental Example 1); assay type: cell-based; conditions: 10 ppm at the time of test; 37° C. for 24 hours, then agar 37° C. for 2 days; negative control 3×10^8 cfu/ml
Description: The components (Terpenoid-1 and Terpenoid-2) isolated from the water-insoluble rosemary extract were dissolved in DMSO (dimethylsulfoxide) at a concentration of 2,000 ppm to obtain samples for antibacterial activity test. The antibacterial test was carried out as follows using Listeria monocytogenes JCM2873. 8.95 ml of Mueller Hinton Broth (MHB) culture medium was put in a test tube and sterilized in an autoclave. The culture medium concentration was adjusted to achieve a specified concentration when 50 μl of the sample was added. Listeria monocytogenes JCM2873 was cultured by shake culture at 37° C. for 1 day in the MHB culture medium, and diluted to an appropriate bacteria concentration (3.1×10^4 cfu/ml) by the MHB culture medium. To the test tube in which 8.95 ml of the MHB culture medium prepared in the above (1) was put, 50 μl of the sample and 1 ml of the bacteria liquid prepared in the above (2) were added and stirred (isolated component concentration at the time of test: 10 ppm) and left at rest at 37° C. for 24 hours. As a negative control and a positive control, sterilized water and erythromycin (solution at a concentration of 2,000 ppm in ethanol) were added instead of the sample. From the test tube left at rest at 37° C. for 24 hours, a loopful of the culture fluid was collected and smeared on a Mueller Hinton agar medium. After culturing at 37° C. for 2 days, formation of colonies on the agar medium and its degree were judged.

[3] = 50, 100, 200 ppm, same conditions as for Terpenoid-1 and Terpenoid-2
[4] = at a concentration of 50 ppm or higher

Row | SMILES | antibacterial activity against Listeria monocytogenes (in words) [1, 3] | Number of bacteria (cfu/ml) ([1]; added substance 50 ppm) | Inhibitory ratio (%) ([1]; added substance 50 ppm) | Number of bacteria (cfu/ml) ([1]; added substance 100 ppm) | Inhibitory ratio (%) ([1]; added substance 100 ppm) | Number of bacteria (cfu/ml) ([1]; added substance 200 ppm) | Inhibitory ratio (%) ([1]; added substance 200 ppm) | formation of colonies on the agar medium [2] | other results
1 | CCO[C@H]1c2cc(C(C)C)c(O)c(O)c2[C@@]23CCCC(C)(C)[C@@H]2[C@@H]1OC3=O [7α-Ethoxyrosmanol, 7α-ethoxyrosmanol] | low or no antibacterial activity | 2.5 × 10^9 cfu/ml | 4.0% | 3.6 × 10^9 cfu/ml | 0.5% | 3.8 × 10^9 cfu/ml | 2.6% |  | 
2 | COc1c(C(C)C)cc2c(c1O)C1(C(=O)O)CCCC(C)(C)C1CC2 (stereo not drawn) [12-Methoxy-tarns-carnosic acid, 12-methoxy-trans-carnosic acid] | low or no antibacterial activity | 3.1 × 10^9 cfu/ml | 11.8% | 4.1 × 10^9 cfu/ml | 17.7% | 4.3 × 10^9 cfu/ml | 20.6% |  | 
3 | C=C(C)[C@@H]1CC[C@]2(C(=O)O)CC[C@]3(C)[C@H](CC[C@@H]4[C@@]5(C)CC[C@H](O)C(C)(C)[C@@H]5CC[C@]43C)[C@@H]12 [Betulinic acid] |  | 4.0 × 10^9 cfu/ml | 0.0% | 4.5 × 10^9 cfu/ml | 0.0% | 3.0 × 10^9 cfu/ml | 0.0% |  | 
4 | CC(C)c1cc2c(c(O)c1O)[C@@]13CCCC(C)(C)[C@@H]1C[C@@H]2OC3=O [Carnosol] | low or no antibacterial activity | 4.3 × 10^9 cfu/ml | 0.0% | 4.7 × 10^9 cfu/ml | 0.0% | 3.9 × 10^9 cfu/ml | 0.0% |  | 
5 | CC(C)c1cc2c(c(O)c1O)[C@@]13CCCC(C)(C)[C@@H]1[C@H](OC3=O)[C@@H]2O [Epirosmanol] | low or no antibacterial activity | 4.0 × 10^9 cfu/ml | 0.0% | 4.2 × 10^9 cfu/ml | 0.0% | 3.2 × 10^9 cfu/ml | 0.0% |  | 
6 | CC[C@H]1OC(=O)[C@H](C)[C@@H](O[C@H]2C[C@@](C)(OC)[C@@H](O)[C@H](C)O2)[C@H](C)[C@@H](O[C@@H]2O[C@H](C)C[C@H](N(C)C)[C@H]2O)[C@](C)(O)C[C@@H](C)C(=O)[C@H](C)[C@@H](O)[C@]1(C)O [Erythromycin, erythromycin] |  |  |  |  |  |  |  | no formation of colonies | Turbidity of culture fluid ([1]; added substance 2.5 ppm): 0.011; Number of bacteria (cfu/ml) ([1]; added substance 2.5 ppm): 3.7 × 10^2 cfu/ml; Inhibitory ratio (%) ([1]; added substance 2.5 ppm): 97.8%; Turbidity of culture fluid ([1]; added substance 5 ppm): 0.022; Number of bacteria (cfu/ml) ([1]; added substance 5 ppm): 9.5 × 10^2 cfu/ml; Inhibitory ratio (%) ([1]; added substance 5 ppm): 95.6%; Turbidity of culture fluid ([1]; added substance 10 ppm): −0.008; Number of bacteria (cfu/ml) ([1]; added substance 10 ppm): 1.8 × 10^2 cfu/ml; Inhibitory ratio (%) ([1]; added substance 10 ppm): 98.4%; antibacterial property (in words) ([1]; concentration range of from 2.5 to 10 ppm): high antibacterial property
7 | CC(C)c1cc2c(c(O)c1O)[C@@]13CCCC(C)(C)[C@@H]1[C@H](OC3=O)[C@H]2O [Rosmanol] | low or no antibacterial activity | 3.9 × 10^9 cfu/ml | 10.2% | 3.7 × 10^9 cfu/ml | 5.1% | 3.9 × 10^9 cfu/ml | 16.0% |  | 
8 | CC(C)c1cc2c(cc1O)[C@@]1(C)CCCC(C)(C)[C@@H]1CC2 [Terpenoid-1, ferruginol] |  | 3.8 × 10^9 cfu/ml | 4.6% | 1.6 × 10^9 cfu/ml | 43.0% | 3.8 × 10^6 cfu/ml | 100% | no formation of colonies | Turbidity of culture fluid ([1]; added substance 50 ppm): 0.485; Turbidity of culture fluid ([1]; added substance 100 ppm): 0.290; Turbidity of culture fluid ([1]; added substance 200 ppm): −0.003; antibacterial activity against Listeria monocytogenes (in words) [1, 4]: confirmed to have antibacterial activity
9 | CC(C)c1cc2c(cc1O)[C@H]1CCCC(C)(C)[C@@H]1CC2 [Terpenoid-2] |  | 4.4 × 10^9 cfu/ml | 7.2% | 2.5 × 10^9 cfu/ml | 21.0% | 1.3 × 10^9 cfu/ml | 47.2% | no formation of colonies | Turbidity of culture fluid ([1]; added substance 50 ppm): 0.472; Turbidity of culture fluid ([1]; added substance 100 ppm): 0.402; Turbidity of culture fluid ([1]; added substance 200 ppm): 0.268; antibacterial activity against Listeria monocytogenes (in words) [1, 4]: confirmed to have antibacterial activity
